Laboratory results from ChEMBL document CHEMBL5724914, “Linking interpersonal differences in gut microbiota composition and drug biotransformation activity” (2024).

conditions: human gut metagenome, 24 h, 2 µM
Further: call rule not given here.

Compound	Bacterial Biotransformation
O=c1[nH]c2ccccc2n1CCCN1CCC(n2c(=O)[nH]c3cc(Cl)ccc32)CC1 [DOMPERIDONE]	Compound NOT metabolized
COC(=O)[C@H]1[C@H]2C[C@@H]3c4[nH]c5cc(OC)ccc5c4CCN3C[C@H]2C[C@@H](OC(=O)c2cc(OC)c(OC)c(OC)c2)[C@@H]1OC [RESERPINE]	Compound metabolized

assay: (§1) The drug is tested on Z-019 corresponding to rat gut metagenome with ENA study accession number: PRJEB37062 and ENA sample accession number: ERS12561818 for biotransformation under anaerobic condition. The drug concentrations were measured over 9 timepoints collected between 0 and 24 hours of incubation by liquid-chromatography-coupled mass spectrometry (LC–MS); conditions: 2 µM

Compound	Bacterial Biotransformation
O=c1[nH]c2ccccc2n1CCCN1CCC(n2c(=O)[nH]c3cc(Cl)ccc32)CC1 [DOMPERIDONE]	Compound NOT metabolized
COC(=O)[C@H]1[C@H]2C[C@@H]3c4[nH]c5cc(OC)ccc5c4CCN3C[C@H]2C[C@@H](OC(=O)c2cc(OC)c(OC)c(OC)c2)[C@@H]1OC [RESERPINE]	Compound NOT metabolized

conditions: human gut metagenome, 24 h, 2 µM; remark: another data set of the same source

Compound	Bacterial Biotransformation
O=c1[nH]c2ccccc2n1CCCN1CCC(n2c(=O)[nH]c3cc(Cl)ccc32)CC1 [DOMPERIDONE]	Compound NOT metabolized
COC(=O)[C@H]1[C@H]2C[C@@H]3c4[nH]c5cc(OC)ccc5c4CCN3C[C@H]2C[C@@H](OC(=O)c2cc(OC)c(OC)c(OC)c2)[C@@H]1OC [RESERPINE]	Compound metabolized

assay: as §1, with “on WLS-086” for “on Z-019”, “to human” for “to rat”, “number: ERS12561752” for “number: ERS12561818”; conditions: 2 µM

Compound	Bacterial Biotransformation
O=c1[nH]c2ccccc2n1CCCN1CCC(n2c(=O)[nH]c3cc(Cl)ccc32)CC1 [DOMPERIDONE]	Compound metabolized
COC(=O)[C@H]1[C@H]2C[C@@H]3c4[nH]c5cc(OC)ccc5c4CCN3C[C@H]2C[C@@H](OC(=O)c2cc(OC)c(OC)c(OC)c2)[C@@H]1OC [RESERPINE]	Compound metabolized

conditions: human gut metagenome, 24 h, 2 µM; remark: another data set of the same source

Compound	Bacterial Biotransformation
O=c1[nH]c2ccccc2n1CCCN1CCC(n2c(=O)[nH]c3cc(Cl)ccc32)CC1 [DOMPERIDONE]	Compound NOT metabolized
COC(=O)[C@H]1[C@H]2C[C@@H]3c4[nH]c5cc(OC)ccc5c4CCN3C[C@H]2C[C@@H](OC(=O)c2cc(OC)c(OC)c(OC)c2)[C@@H]1OC [RESERPINE]	Compound NOT metabolized

assay: as §1, with “on WLS-310” for “on Z-019”, “to human” for “to rat”, “number: ERS12561785” for “number: ERS12561818”; conditions: 2 µM

Compound	Bacterial Biotransformation
O=c1[nH]c2ccccc2n1CCCN1CCC(n2c(=O)[nH]c3cc(Cl)ccc32)CC1 [DOMPERIDONE]	Compound NOT metabolized
COC(=O)[C@H]1[C@H]2C[C@@H]3c4[nH]c5cc(OC)ccc5c4CCN3C[C@H]2C[C@@H](OC(=O)c2cc(OC)c(OC)c(OC)c2)[C@@H]1OC [RESERPINE]	Compound metabolized

conditions: human gut metagenome, 24 h, 2 µM; remark: another data set of the same source

Compound	Bacterial Biotransformation
COC(=O)[C@H]1[C@H]2C[C@@H]3c4[nH]c5cc(OC)ccc5c4CCN3C[C@H]2C[C@@H](OC(=O)c2cc(OC)c(OC)c(OC)c2)[C@@H]1OC [RESERPINE]	Compound NOT metabolized

conditions: human gut metagenome, 24 h, 2 µM; remark: another data set of the same source

Compound	Bacterial Biotransformation
O=c1[nH]c2ccccc2n1CCCN1CCC(n2c(=O)[nH]c3cc(Cl)ccc32)CC1 [DOMPERIDONE]	Compound NOT metabolized
COC(=O)[C@H]1[C@H]2C[C@@H]3c4[nH]c5cc(OC)ccc5c4CCN3C[C@H]2C[C@@H](OC(=O)c2cc(OC)c(OC)c(OC)c2)[C@@H]1OC [RESERPINE]	Compound metabolized

conditions: human gut metagenome, 24 h, 2 µM; remark: another data set of the same source

Compound	Bacterial Biotransformation
O=c1[nH]c2ccccc2n1CCCN1CCC(n2c(=O)[nH]c3cc(Cl)ccc32)CC1 [DOMPERIDONE]	Compound NOT metabolized
COC(=O)[C@H]1[C@H]2C[C@@H]3c4[nH]c5cc(OC)ccc5c4CCN3C[C@H]2C[C@@H](OC(=O)c2cc(OC)c(OC)c(OC)c2)[C@@H]1OC [RESERPINE]	Compound NOT metabolized

assay: as §1, with “Z-014” for “Z-019”, “ERS12561814” for “ERS12561818”; conditions: 2 µM

Compound	Bacterial Biotransformation
O=c1[nH]c2ccccc2n1CCCN1CCC(n2c(=O)[nH]c3cc(Cl)ccc32)CC1 [DOMPERIDONE]	Compound NOT metabolized
COC(=O)[C@H]1[C@H]2C[C@@H]3c4[nH]c5cc(OC)ccc5c4CCN3C[C@H]2C[C@@H](OC(=O)c2cc(OC)c(OC)c(OC)c2)[C@@H]1OC [RESERPINE]	Compound NOT metabolized

conditions: human gut metagenome, 24 h, 2 µM; remark: another data set of the same source

Compound	Bacterial Biotransformation
COC(=O)[C@H]1[C@H]2C[C@@H]3c4[nH]c5cc(OC)ccc5c4CCN3C[C@H]2C[C@@H](OC(=O)c2cc(OC)c(OC)c(OC)c2)[C@@H]1OC [RESERPINE]	Compound NOT metabolized

assay: as §1, with “on Z-016” for “on Z-019”, “to mouse” for “to rat”, “number: ERS12561815” for “number: ERS12561818”; conditions: 2 µM

Compound	Bacterial Biotransformation
O=c1[nH]c2ccccc2n1CCCN1CCC(n2c(=O)[nH]c3cc(Cl)ccc32)CC1 [DOMPERIDONE]	Compound NOT metabolized
COC(=O)[C@H]1[C@H]2C[C@@H]3c4[nH]c5cc(OC)ccc5c4CCN3C[C@H]2C[C@@H](OC(=O)c2cc(OC)c(OC)c(OC)c2)[C@@H]1OC [RESERPINE]	Compound NOT metabolized

assay: as §1, with “on Z-017” for “on Z-019”, “to mouse” for “to rat”, “number: ERS12561816” for “number: ERS12561818”; conditions: 2 µM

Compound	Bacterial Biotransformation
O=c1[nH]c2ccccc2n1CCCN1CCC(n2c(=O)[nH]c3cc(Cl)ccc32)CC1 [DOMPERIDONE]	Compound NOT metabolized
COC(=O)[C@H]1[C@H]2C[C@@H]3c4[nH]c5cc(OC)ccc5c4CCN3C[C@H]2C[C@@H](OC(=O)c2cc(OC)c(OC)c(OC)c2)[C@@H]1OC [RESERPINE]	Compound NOT metabolized

assay: as §1, with “on WLS-220” for “on Z-019”, “to human” for “to rat”, “number: ERS12561769” for “number: ERS12561818”; conditions: 2 µM

Compound	Bacterial Biotransformation
O=c1[nH]c2ccccc2n1CCCN1CCC(n2c(=O)[nH]c3cc(Cl)ccc32)CC1 [DOMPERIDONE]	Compound NOT metabolized

assay: as §1, with “on Z-013” for “on Z-019”, “to rabbit” for “to rat”, “number: ERS12561813” for “number: ERS12561818”; conditions: 2 µM

Compound	Bacterial Biotransformation
O=c1[nH]c2ccccc2n1CCCN1CCC(n2c(=O)[nH]c3cc(Cl)ccc32)CC1 [DOMPERIDONE]	Compound NOT metabolized
COC(=O)[C@H]1[C@H]2C[C@@H]3c4[nH]c5cc(OC)ccc5c4CCN3C[C@H]2C[C@@H](OC(=O)c2cc(OC)c(OC)c(OC)c2)[C@@H]1OC [RESERPINE]	Compound NOT metabolized

assay: as §1, with “on WLS-073” for “on Z-019”, “to human” for “to rat”, “number: ERS12561749” for “number: ERS12561818”; conditions: 2 µM

Compound	Bacterial Biotransformation
O=c1[nH]c2ccccc2n1CCCN1CCC(n2c(=O)[nH]c3cc(Cl)ccc32)CC1 [DOMPERIDONE]	Compound NOT metabolized
COC(=O)[C@H]1[C@H]2C[C@@H]3c4[nH]c5cc(OC)ccc5c4CCN3C[C@H]2C[C@@H](OC(=O)c2cc(OC)c(OC)c(OC)c2)[C@@H]1OC [RESERPINE]	Compound NOT metabolized

conditions: human gut metagenome, 24 h, 2 µM; remark: another data set of the same source

Compound	Bacterial Biotransformation
O=c1[nH]c2ccccc2n1CCCN1CCC(n2c(=O)[nH]c3cc(Cl)ccc32)CC1 [DOMPERIDONE]	Compound NOT metabolized
COC(=O)[C@H]1[C@H]2C[C@@H]3c4[nH]c5cc(OC)ccc5c4CCN3C[C@H]2C[C@@H](OC(=O)c2cc(OC)c(OC)c(OC)c2)[C@@H]1OC [RESERPINE]	Compound metabolized

assay: as §1, with “on WLS-007” for “on Z-019”, “to human” for “to rat”, “number: ERS12561742” for “number: ERS12561818”; conditions: 2 µM

Compound	Bacterial Biotransformation
O=c1[nH]c2ccccc2n1CCCN1CCC(n2c(=O)[nH]c3cc(Cl)ccc32)CC1 [DOMPERIDONE]	Compound NOT metabolized
COC(=O)[C@H]1[C@H]2C[C@@H]3c4[nH]c5cc(OC)ccc5c4CCN3C[C@H]2C[C@@H](OC(=O)c2cc(OC)c(OC)c(OC)c2)[C@@H]1OC [RESERPINE]	Compound NOT metabolized

assay: as §1, with “on WLS-038” for “on Z-019”, “to human” for “to rat”, “number: ERS12561745” for “number: ERS12561818”; conditions: 2 µM

Compound	Bacterial Biotransformation
O=c1[nH]c2ccccc2n1CCCN1CCC(n2c(=O)[nH]c3cc(Cl)ccc32)CC1 [DOMPERIDONE]	Compound NOT metabolized
COC(=O)[C@H]1[C@H]2C[C@@H]3c4[nH]c5cc(OC)ccc5c4CCN3C[C@H]2C[C@@H](OC(=O)c2cc(OC)c(OC)c(OC)c2)[C@@H]1OC [RESERPINE]	Compound NOT metabolized

assay: as §1, with “Z-008” for “Z-019”, “to” for “to rat gut”, “ERS12561808” for “ERS12561818”; conditions: 2 µM

Compound	Bacterial Biotransformation
O=c1[nH]c2ccccc2n1CCCN1CCC(n2c(=O)[nH]c3cc(Cl)ccc32)CC1 [DOMPERIDONE]	Compound NOT metabolized
COC(=O)[C@H]1[C@H]2C[C@@H]3c4[nH]c5cc(OC)ccc5c4CCN3C[C@H]2C[C@@H](OC(=O)c2cc(OC)c(OC)c(OC)c2)[C@@H]1OC [RESERPINE]	Compound NOT metabolized
